Reference: publication PMC8245910 (Acta Pharmaceutica Sinica. B, 2021)

Tests used:
[1] = SD rats; cited from earlier work
[2] = system: wild-type TF-1; assay: 2-HG reducing assay in cell; assay type: cell-based
[3] = biological target: MDR1 (Homo sapiens, UniProt P08183); conditions: cited from earlier work
[4] = biological target: T1, BCRP (Homo sapiens, UniProt Q9UNQ0); conditions: cited from earlier work
T1 sequence (Q9UNQ0 1-655): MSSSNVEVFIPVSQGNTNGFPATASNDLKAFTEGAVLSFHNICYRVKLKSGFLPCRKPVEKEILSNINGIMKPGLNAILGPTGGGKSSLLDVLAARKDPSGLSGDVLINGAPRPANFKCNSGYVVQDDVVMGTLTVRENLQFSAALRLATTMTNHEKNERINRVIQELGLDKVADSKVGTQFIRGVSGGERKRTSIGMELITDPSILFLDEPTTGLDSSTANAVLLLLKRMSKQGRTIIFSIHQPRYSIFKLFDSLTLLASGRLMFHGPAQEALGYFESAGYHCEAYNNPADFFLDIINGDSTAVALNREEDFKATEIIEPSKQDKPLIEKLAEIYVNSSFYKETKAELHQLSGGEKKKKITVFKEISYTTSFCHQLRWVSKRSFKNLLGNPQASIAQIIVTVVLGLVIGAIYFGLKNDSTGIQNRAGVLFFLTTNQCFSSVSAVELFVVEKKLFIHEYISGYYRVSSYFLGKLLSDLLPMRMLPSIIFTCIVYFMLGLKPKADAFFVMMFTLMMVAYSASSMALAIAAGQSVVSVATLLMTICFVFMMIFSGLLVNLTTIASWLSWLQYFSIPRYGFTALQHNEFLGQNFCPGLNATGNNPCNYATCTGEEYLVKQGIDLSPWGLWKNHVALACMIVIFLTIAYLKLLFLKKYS

MDR1, sequence (P08183 whole entry): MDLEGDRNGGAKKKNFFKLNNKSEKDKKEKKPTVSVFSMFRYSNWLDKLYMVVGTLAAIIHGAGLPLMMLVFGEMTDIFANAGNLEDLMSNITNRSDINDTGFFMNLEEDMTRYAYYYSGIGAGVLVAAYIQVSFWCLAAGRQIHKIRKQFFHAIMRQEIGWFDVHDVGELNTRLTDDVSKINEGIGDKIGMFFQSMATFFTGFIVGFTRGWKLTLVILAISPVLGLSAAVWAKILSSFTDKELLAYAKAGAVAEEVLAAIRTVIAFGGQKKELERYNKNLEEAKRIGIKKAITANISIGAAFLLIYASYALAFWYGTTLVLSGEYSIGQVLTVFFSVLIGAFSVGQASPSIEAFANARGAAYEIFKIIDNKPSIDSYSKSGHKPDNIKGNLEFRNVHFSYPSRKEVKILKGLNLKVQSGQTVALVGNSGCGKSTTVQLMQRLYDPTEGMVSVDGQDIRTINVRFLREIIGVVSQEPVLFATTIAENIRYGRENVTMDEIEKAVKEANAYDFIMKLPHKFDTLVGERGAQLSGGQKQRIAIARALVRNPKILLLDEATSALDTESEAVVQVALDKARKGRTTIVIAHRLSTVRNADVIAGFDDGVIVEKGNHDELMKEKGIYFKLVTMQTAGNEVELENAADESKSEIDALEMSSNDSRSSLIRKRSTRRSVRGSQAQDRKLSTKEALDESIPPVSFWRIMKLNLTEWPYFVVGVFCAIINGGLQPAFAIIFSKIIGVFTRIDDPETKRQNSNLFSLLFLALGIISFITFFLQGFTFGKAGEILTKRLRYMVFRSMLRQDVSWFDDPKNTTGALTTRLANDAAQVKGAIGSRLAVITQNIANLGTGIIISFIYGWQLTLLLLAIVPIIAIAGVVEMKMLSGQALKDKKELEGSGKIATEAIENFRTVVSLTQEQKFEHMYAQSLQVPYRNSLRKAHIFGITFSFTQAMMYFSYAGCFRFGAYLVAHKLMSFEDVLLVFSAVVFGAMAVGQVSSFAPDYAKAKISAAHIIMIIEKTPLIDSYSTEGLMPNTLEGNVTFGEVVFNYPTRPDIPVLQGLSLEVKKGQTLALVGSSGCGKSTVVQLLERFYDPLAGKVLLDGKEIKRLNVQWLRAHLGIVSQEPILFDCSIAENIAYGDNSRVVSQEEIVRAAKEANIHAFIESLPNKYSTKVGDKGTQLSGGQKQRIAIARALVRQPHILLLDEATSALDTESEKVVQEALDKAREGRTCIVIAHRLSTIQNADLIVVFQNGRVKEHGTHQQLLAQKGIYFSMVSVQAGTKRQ

SMILES: CC(C)(O)CNc1nc(Nc2ccnc(C(F)(F)F)c2)nc(-c2cccc(C(F)(F)F)n2)n1 [AG-221, Enasidenib]
- prototype drug in the excrement, share of the total drugs [1]: about 50%
- prototype products and metabolites excreted in feces [1]: > 90%
- overall concentration of 2-HG [2]: did not change significantly
- inhibition of MDR1 [3]: strong inhibitor
- inhibition of BCRP [4]: strong inhibitor
